Calls of active or inactive are those of the source. How the calls were made is not given here.
Molecular target: N-formyl peptide receptor 2 (Homo sapiens) (UniProt P25090)
Test: FPRL1 fluorescent ligand binding inhibitors, dose response, selectivity assay for FPR1 ligand SAR project, cell-based, flow cytometry, Ki from IC50 (AID 723)
Conditions: FPRL1-expressing cells, fluorescent ligand binding competition; for Ki: measured here: Ki from IC50

Chain of N-formyl peptide receptor 2 (Homo sapiens) (P25090 whole entry, looked up): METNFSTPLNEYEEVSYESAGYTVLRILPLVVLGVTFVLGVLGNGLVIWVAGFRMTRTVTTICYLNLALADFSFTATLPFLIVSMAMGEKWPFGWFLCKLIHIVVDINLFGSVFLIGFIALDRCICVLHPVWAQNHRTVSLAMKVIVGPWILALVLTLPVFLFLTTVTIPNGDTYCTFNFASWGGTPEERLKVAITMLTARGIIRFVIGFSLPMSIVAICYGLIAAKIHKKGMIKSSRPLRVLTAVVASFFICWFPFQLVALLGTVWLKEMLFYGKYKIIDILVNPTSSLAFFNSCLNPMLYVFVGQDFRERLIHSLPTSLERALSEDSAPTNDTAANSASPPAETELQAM

O=C1CC(c2ccccc2C(F)(F)F)C2=C(CC(c3cccs3)CC2=O)N1 (stereo not drawn) showed a Ki of over 40.3 µM.

For CCCCCCOc1cccc(N2C(=O)C(=O)/C(=C(\O)c3ccccc3)C2c2cccc(F)c2)c1 (stereo not drawn), the IC50 was > 66.7 µM (inactive) and the Ki was over 40.3 µM.

O=C(C1=C(O)C(=O)N(CCCN2CCOCC2)C1c1cccnc1)c1cc2ccccc2o1 (stereo not drawn) was tested, and the IC50 was > 66.7 µM (inactive) and the Ki was over 40.3 µM.

With CCCC(=O)N(Cc1ccco1)S(=O)(=O)c1cccc2cccnc12 the Ki was over 40.3 µM.

In the case of O=C(C1=C(O)C(=O)N(CCc2ccccc2)C1c1ccc(Cl)cc1)c1cccs1 (stereo not drawn), the IC50 is reported as > 66.7 µM (inactive) and the Ki is reported as over 40.3 µM.

CC(=O)C1=C(O)C(=O)N(CCc2c(C)[nH]c3ccccc23)C1c1cccc(F)c1 (stereo not drawn) was tested, and the IC50 was > 66.7 µM (inactive) and the Ki was over 40.3 µM.

COc1cccc(/C=C2/C(=O)NN(c3ccc(C)cc3)C2=O)c1 was tested, and the Ki was over 40.3 µM.

O=C(O)CCCN1C(=O)C(=O)/C(=C(/O)c2ccccc2)C1/C=C/c1ccccc1 (stereo not drawn) was tested, and the IC50 was > 66.7 µM (inactive) and the Ki was over 40.3 µM.

With COc1cc(C2C(C(C)=O)=C(O)C(=O)N2c2ccc(Br)cc2)ccc1O (stereo not drawn) the IC50 was > 66.7 µM (inactive) and the Ki was over 40.3 µM.

Work on COc1ccc(OC)c(CNC(=O)Cn2c(=O)sc3ccccc32)c1 yielded a Ki of over 40.3 µM.

With COc1ccc(C2/C(=C(\O)c3ccccc3)C(=O)C(=O)N2CCCn2ccnc2)c(OC)c1 (stereo not drawn) the IC50 was > 66.7 µM (inactive) and the Ki was over 40.3 µM.

Cc1cccc(C2CC(=O)NC3=C2C(=O)CC(c2cccs2)C3)c1 (stereo not drawn) showed a Ki of over 40.3 µM.

Work on CCC(C)(C(=O)NC1CCCCC1)N(Cc1cccs1)C(C)=O (stereo not drawn) yielded a Ki of over 40.3 µM.

For O=C1NC(c2ccc(Br)cc2)/C(=C(\O)c2ccc(Cl)cc2)C1=O (stereo not drawn), the IC50 was > 66.7 µM (inactive) and the Ki was over 40.3 µM.

With O=C(C1=C(O)C(=O)N(CCCn2ccnc2)C1c1cccnc1)c1ccco1 (stereo not drawn) the IC50 was > 66.7 µM (inactive) and the Ki was over 40.3 µM.

COc1ccc(-c2c(C(F)(F)F)oc3c(CN4CCOCC4)c(O)ccc3c2=O)cc1OC was tested, and the Ki was over 40.3 µM.

With COc1ccc(/C(O)=C2/C(=O)C(=O)NC2c2ccc(OC)cc2OC)cc1 (stereo not drawn) the IC50 was > 66.7 µM (inactive) and the Ki was over 40.3 µM.

With COCCN1C(=O)C(=O)/C(=C(/O)c2ccccc2)C1c1cc(OC)ccc1OC (stereo not drawn) the IC50 was > 66.7 µM (inactive) and the Ki was over 40.3 µM.

With COc1ccc(C2C(C(=O)c3ccco3)=C(O)C(=O)N2CCN2CCOCC2)c(OC)c1 (stereo not drawn) the IC50 was > 66.7 µM (inactive) and the Ki was over 40.3 µM.

COCCCN1C(=O)C(=O)/C(=C(/O)c2ccccc2)C1c1ccc(O)c(OC)c1 (stereo not drawn) was tested, and the IC50 was > 66.7 µM (inactive) and the Ki was over 40.3 µM.

COc1ccc(C2C(C(=O)c3cccs3)=C(O)C(=O)N2CCCn2ccnc2)cc1 (stereo not drawn) was tested, and the IC50 was > 66.7 µM (inactive) and the Ki was over 40.3 µM.

For CCCCCCN1C(=O)C(=O)/C(=C(\O)c2ccccc2)C1c1ccc(O)c(OC)c1 (stereo not drawn), the IC50 was > 66.7 µM (inactive) and the Ki was over 40.3 µM.

CC(C)c1ccc(C2/C(=C(\O)c3ccccc3)C(=O)C(=O)N2Cc2cccnc2)cc1 (stereo not drawn) was tested, and the IC50 was > 66.7 µM (inactive) and the Ki was over 40.3 µM.

For COc1ccc(OC)c(C2/C(=C(\O)c3ccc(C)cc3)C(=O)C(=O)N2CCC(=O)O)c1 (stereo not drawn), the IC50 was > 66.7 µM (inactive) and the Ki was over 40.3 µM.

Cc1ccc(/C(O)=C2\C(=O)C(=O)N(Cc3cccnc3)C2c2ccc(Br)cc2)cc1 (stereo not drawn) was tested, and the IC50 was > 66.7 µM (inactive) and the Ki was over 40.3 µM.

CC(C)C(=O)N(Cc1ccco1)S(=O)(=O)c1cccc2cccnc12 showed a Ki of over 40.3 µM.

COc1ccc(-c2c(C(F)(F)F)oc3cc(OC(=O)c4ccco4)ccc3c2=O)cc1OC was tested, and the Ki was over 40.3 µM.

N#Cc1c(N/C(=C\C(=O)c2ccccc2)C(=O)O)sc2c1CCC2 was tested, and the IC50 was > 66.7 µM (inactive) and the Ki was over 40.3 µM.

With COc1cccc(-c2ccnc3[nH]n(-c4ccccc4)c(=O)c23)c1 the Ki was over 40.3 µM.

With COc1ccc(C2/C(=C(\O)c3ccccc3)C(=O)C(=O)N2c2cccc(Cl)c2)c(OC)c1 (stereo not drawn) the IC50 was > 66.7 µM (inactive) and the Ki was over 40.3 µM.

For Cc1nc2c(-c3ccc(Cl)cc3)c(C(F)(F)F)[nH]n2c(=O)c1Cc1ccccc1, the Ki was over 40.3 µM.

COc1ccc(-c2c(C)[nH]n3c(=O)c4c(nc23)CCCC4)cc1 gave a Ki of over 40.3 µM.

For Cc1cccc(C)c1NC(=O)C(NC(=O)Cc1cccs1)c1ccccc1 (stereo not drawn), the Ki was over 40.3 µM.

COc1ccc(-c2c(C(F)(F)F)oc3cc(OC(=O)c4cccnc4)ccc3c2=O)cc1OC showed a Ki of over 40.3 µM.

Work on O=C(Oc1ccc2c(=O)c(Oc3ccccc3Br)c(C(F)(F)F)oc2c1)c1cccs1 yielded a Ki of over 40.3 µM.

In the case of O=C(C1=C(O)C(=O)N(CCCn2ccnc2)C1c1cccnc1)c1cc2ccccc2o1 (stereo not drawn), the IC50 is reported as > 66.7 µM (inactive) and the Ki is reported as over 40.3 µM.

COc1ccc(OC)c(C2/C(=C(\O)c3ccccc3)C(=O)C(=O)N2c2cccnc2)c1 (stereo not drawn) was tested, and the IC50 was > 66.7 µM (inactive) and the Ki was over 40.3 µM.

COc1ccc(/C(O)=C2/C(=O)C(=O)N(CCc3c[nH]c4ccccc34)C2c2ccc(C(C)C)cc2)cc1 (stereo not drawn) was tested, and the IC50 was > 66.7 µM (inactive) and the Ki was over 40.3 µM.

With COc1ccc(C2C(C(=O)N3CCCC(C)C3)c3ccccc3C(=O)N2C)cc1 (stereo not drawn) the Ki was over 40.3 µM.

In the case of COc1ccc(C2C(C(=O)c3cccs3)=C(O)C(=O)N2CCN2CCOCC2)c(OC)c1 (stereo not drawn), the IC50 is reported as > 66.7 µM (inactive) and the Ki is reported as over 40.3 µM.

COCCCN1C(=O)C(=O)/C(=C(/O)c2ccccc2)C1c1ccc(C(C)C)cc1 (stereo not drawn) was tested, and the IC50 was > 66.7 µM (inactive) and the Ki was over 40.3 µM.

O=C(Oc1ccc2c(=O)c(-c3ccccc3Cl)c(C(F)(F)F)oc2c1)c1cccs1 was tested, and the Ki was over 40.3 µM.

With COc1ccc(OC)c(C2/C(=C(\O)c3ccccc3)C(=O)C(=O)N2c2ccc(C)c(Cl)c2)c1 (stereo not drawn) the IC50 was > 66.7 µM (inactive) and the Ki was over 40.3 µM.

Cc1sc2c(c1C)c(=O)n(Cc1ccccc1)c(=O)n2Cc1ccccc1F gave a Ki of over 40.3 µM.

COc1ccc(C2/C(=C(\O)c3ccc(C)cc3)C(=O)C(=O)N2Cc2cccnc2)c(OC)c1 (stereo not drawn) was tested, and the IC50 was > 66.7 µM (inactive) and the Ki was over 40.3 µM.

With O=C1C(=O)N(CN2CCOCC2)C(c2ccc(Br)cc2)/C1=C(\O)c1ccccc1 (stereo not drawn) the IC50 was > 66.7 µM (inactive) and the Ki was over 40.3 µM.

COc1ccccc1-c1c(C(F)(F)F)oc2cc(OC(=O)c3ccco3)ccc2c1=O gave a Ki of over 40.3 µM.

COCCN1C(=O)C(=O)/C(=C(/O)c2ccccc2)C1c1ccccc1OC (stereo not drawn) was tested, and the IC50 was > 66.7 µM (inactive) and the Ki was over 40.3 µM.

Cc1ccc(N2C(=O)C(=O)/C(=C(\O)c3ccccc3)C2c2cccc(F)c2)cc1Br (stereo not drawn) was tested, and the IC50 was > 66.7 µM (inactive) and the Ki was over 40.3 µM.

COc1cc(C2C(C(=O)c3cc4ccccc4o3)=C(O)C(=O)N2CCN(C)C)ccc1O (stereo not drawn) was tested, and the IC50 was > 66.7 µM (inactive) and the Ki was over 40.3 µM.

With Cc1ccc(/C(O)=C2\C(=O)C(=O)N(c3nnc(C)s3)C2c2ccc(C(C)C)cc2)cc1 (stereo not drawn) the IC50 was > 66.7 µM (inactive) and the Ki was over 40.3 µM.

With O=C(O)C1CCCCC1C(=O)Nc1ccc(Br)cc1 (stereo not drawn) the Ki was over 40.3 µM.

With COc1ccc(C2C(C(=O)c3ccco3)=C(O)C(=O)N2CCCN2CCOCC2)cc1OC (stereo not drawn) the IC50 was > 66.7 µM (inactive) and the Ki was over 40.3 µM.

CCc1cc2c(=O)c(-c3nc4ccccc4n3C)c(C)oc2cc1OC(C)=O was tested, and the Ki was over 40.3 µM.

For COCCN1C(=O)C(=O)/C(=C(/O)c2ccccc2)C1c1ccc(C(C)C)cc1 (stereo not drawn), the IC50 was > 66.7 µM (inactive) and the Ki was over 40.3 µM.

In the case of COc1ccc(C2C(C(=O)c3cc4ccccc4o3)=C(O)C(=O)N2CCN(C)C)cc1OC (stereo not drawn), the IC50 is reported as > 66.7 µM (inactive) and the Ki is reported as over 40.3 µM.

For O=C1C(=O)N(c2ccc(F)cc2)C(c2ccc(Br)cc2)/C1=C(/O)c1ccccc1 (stereo not drawn), the IC50 was > 66.7 µM (inactive) and the Ki was over 40.3 µM.

Reference: PubChem BioAssay AID723 (NMMLSC, 2007)
